According to the supplement of paper PMC10307832:

Assays:
Assay in all cases: relative viability (nuclei count vs DMSO), 5 days (fraction); higher = more cells survive
[1] = compound: C1/C(=C\C2=CC=CS2)/C(=O)/C(=C/C3=CC=CS3)/C1 + CC(=O)Nc1cccc(-n2c(=O)n(C3CC3)c(=O)c3c(Nc4ccc(I)cc4F)n(C)c(=O)c(C)c32)c1 [Trametinib] (partner 0.02 µM)
Method in brief: (§1)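 Lung cancer cell lines were seeded in 1536-well plates and dosed by pin tool the next day, with either a single drug or a fixed anchor-drug dose combined with five library-drug doses (not always all listed) spaced in √10 steps. Five days later, one step fixed the cells and stained their nuclei (final 0.05% Triton X-100, 1% formaldehyde, 1 ug/ml Hoechst), and nuclei were counted on 4× images. Relative viability is the nuclei count in treated wells divided by the count in vehicle wells, and each value is the median of duplicate plates.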

TPCA-1 + Phenformin = compound: C1=CC(=CC=C1C2=CC(=C(S2)NC(=O)N)C(=O)N)F [TPCA-1] + N=C(N)NC(=N)NCCc1ccccc1 [Phenformin] (partner 250 µM)
Method in brief: as §1

[2] = compound: C[C@]12O[C@H](C[C@]1(O)CO)n1c3ccccc3c3c4c(c5c6ccccc6n2c5c31)CNC4=O [Lestaurtinib] + CC(=O)c1c(C)c2cnc(Nc3ccc(N4CCNCC4)cn3)nc2n(C2CCCC2)c1=O [Palbociclib] (partner 0.5 µM)
Method in brief: as §1

Lestaurtinib + Dasatinib = compound: C[C@]12O[C@H](C[C@]1(O)CO)n1c3ccccc3c3c4c(c5c6ccccc6n2c5c31)CNC4=O [Lestaurtinib] + Cc1nc(Nc2ncc(C(=O)Nc3c(C)cccc3Cl)s2)cc(N2CCN(CCO)CC2)n1 [Dasatinib] (partner 0.075 µM)
Method in brief: as §1

UMC-11 was tested, and the relative viability ([1]; first compound 0.2 µM) was 0.69, the relative viability ([1]; first compound 0.6325 µM) was 0.737 and the relative viability ([1]; first compound 2 µM) was 0.675. It also gave a relative viability ([1]; first compound 6.325 µM) of 0.671, a relative viability ([1]; first compound 20 µM) of 0.715 and a relative viability (TPCA-1 + Phenformin; first compound 0.04 µM) of 0.373. It also gave a relative viability (TPCA-1 + Phenformin; first compound 0.1265 µM) of 0.299, a relative viability (TPCA-1 + Phenformin; first compound 0.4 µM) of 0.36 and a relative viability (TPCA-1 + Phenformin; first compound 1.265 µM) of 0.307. It also gave a relative viability (TPCA-1 + Phenformin; first compound 4 µM) of 0.171, a relative viability ([2]; first compound 0.005 µM) of 0.344 and a relative viability ([2]; first compound 0.01581 µM) of 0.294. The relative viability ([2]; first compound 0.05 µM) was 0.33, the relative viability ([2]; first compound 0.1581 µM) was 0.215 and the relative viability ([2]; first compound 0.5 µM) was 0.198. The relative viability (Lestaurtinib + Dasatinib; first compound 0.005 µM) was 0.543, the relative viability (Lestaurtinib + Dasatinib; first compound 0.01581 µM) was 0.501 and the relative viability (Lestaurtinib + Dasatinib; first compound 0.05 µM) was 0.247. The relative viability (Lestaurtinib + Dasatinib; first compound 0.1581 µM) was 0.231 and the relative viability (Lestaurtinib + Dasatinib; first compound 0.5 µM) was 0.146.
